Values of other authors in patent publication US20210135109A1, “ACCELERATED THERMAL CROSSLINKING OF PVDF-HFP VIA ADDITION OF ORGANIC BASES, AND THE USAGE OF CROSSLINKED PVDF-HFP AS GATE DIELECTRIC MATERIAL FOR OTFT DEVICES” (priority 2017, published 2021).

Details: water (measured in water unless otherwise specified)

NCCCCCCN [HMDA, Hexamethylenediamine]
pKa (25° C., 1 atm): 10.92 ± 0.10
